Laboratory results reported in patent US10342766B2, “6-shogaol derivatives and activities thereof” (North Carolina Agricultural and Technical State University, priority 2017, dated 2019).
Where “and” joins values, the source holds several entries; their conditions need not be identical. Equal values may be shown once.

Experiments:
Nrf2 = Nrf2 reporter activity by Tg(gstp1:GFP) fluorescence in transgenic zebrafish embryos; assay type: in vivo; details: 5 μM, 24-hour treatment from 1 dpf to 2 dpf; olfactory epithelia; relative to vehicle (DMSO = 1.00)
Experimental: Zebrafish AB transgenic strains Tg(gstp1:GFP) were maintained in a Pentair Aquatic Ecosystem (Apopka, Fla., United States of America) fish housing unit with 14 h light/10 h dark cycle (see Tsujita, T., Li, L., Nakajima, H., Iwamoto, N., Nakajima-Takagi, Y., Ohashi, K., Kawakami, K., Kumagai, Y., Freeman, B. A., Yamamoto, M., and Kobayashi, M. (2011) “Nitro-fatty acids and cyclopentenone prostaglandins share strategies to activate the Keap1-Nrf2 system: a study using green fluorescent protein transgenic zebrafish.” Genes Cells 16, 46-57). The fish embryos were maintained at 28.5° C. in 0.3× Danieau's solution (19.3 mM NaCl, 0.23 mM KCl, 0.13 mM MgSO4, 0.2 mM Ca(NO3)2, 1.7 mM HEPES, pH 7.0) containing 30 μg/ml phenylthiourea (PTU) to inhibit pigmentation. Tg(gstp1:GFP) cross with AB wild-type strain fluorescence embryos were used for the experiment. Zebrafish embryos were washed, dechorionated and anaesthetized before observations, and fluorescence imaging for analysis.
Transgenic zebrafish embryos at 1 day-post-fertilization (dpf) were dechorionated and placed in Petri dishes containing different chemicals diluted in 0.3× Danieau's solution containing PTU. The chemical stock was dissolved in DMSO at 5 mM concentration.
An Olympus MVX10 Fluorescence Macroscope (Olympus, Center Valley, Pa., United States of America) equipped with a Hamamatsu C9300-221 high-speed digital CCD camera (Hamamatsu City, Japan) was used for fluorescence microscopy. Tg(gstp1:GFP) fluorescent embryos were anaesthetized in tricaine and imaged at 2 dpf. MetaMorph Basic software (Olympus, Center Valley, Pa., United States of America) was used for image acquisition and analysis.
Quantification of Nrf2 Reporter Activity by Tg(gstp1:
GFP) Fluoresence in Zebrafish Model. The fluorescence intensity of the olfactory neural epithelia was quantitated using MetaMorph Basic software. In brief, GFP expression in the olfactory regions of Tg(gstp1:GFP) embryos treated with various chemicals was measured after 24-hour treatment from 1 dpf to 2 dpf. The GFP induction was detectable by fluorescence signal at the area of the olfactory epithelia in the anterior of the head region, the intensity was measured using an area of a circle of 60 pixel diameter of the fluorescence olfactory epithelia subtracted by a background non-fluorescence area next to the zebrafish embryo. Both the left and right olfactory epithelia were measured to give an average fluorescence value. The values are an average of measurements from at least 10 embryos.

[1] = test system: human colon cancer cells HCT-116; assay: MTT growth inhibition, HCT-116; assay type: cell-based; details: 24 hours
Experimental: (§1) Cell viability was determined by an MTT colorimetric assay. Briefly, human colon cancer cells HCT-116 or HT-29, were plated in 96-well microtiter plates with 3000 cells/well and allowed to attach for 24 hours at 37° C. and 5% CO2. The test compounds (in DMSO) were added to cell culture medium to desired final concentrations (final DMSO concentrations for control and treatments were 0.1%). After the cells were cultured for 24 hours, the medium was aspirated and cells were treated with 200 μL fresh medium containing 2.41 mmol/L MTT. After incubation for 3 hours at 37° C., the medium containing MTT was aspirated, 100 μL of DMSO was added to solubilize the formazan precipitate, and the plates were shaken gently for an hour at room temperature. Absorbance values were derived from the plate reading at 550 nm on a Biotek (Winooski, Vt., United States of America) microtiter plate reader. The reading reflected the number of viable cells and was expressed as a percentage of viable cells in the control. CCD-18Co cells were grown in EMEM. Both HCT-116 and HT-29 cells were cultured in McCoy's 5A medium. All of the above media were supplemented with 10% fetal bovine serum, 1% penicillin/streptomycin, and 1% glutamine, and the cells were kept in a 37° C. incubator with 95% humidity and 5% CO2.

[2] = test system: human colon cancer cells HT-29; assay: MTT growth inhibition, HT-29; assay type: cell-based; details: 24 hours
Experimental: as §1

[3] = Biotransformation in zebrafish embryos (cysteine conjugates, LC/MS); assay type: in vivo; details: 5 μM in incubation medium, 8 hpf to 24 hpf
Experimental: Fifty zebrafish embryos at the 8 hour-post-fertilization (hpf) stage were incubated at 28.5° C. in 0.3× Danieau's solution (19.3 mM NaCl, 0.23 mM KCl, 0.13 mM MgSO4, 0.2 mM Ca(NO3)2, 1.7 mM HEPES, pH 7.0) with or without 5 μM 18 and 25-27, respectively. At 24 hpf, embryos were dechorionated manually and the chorions were carefully removed one by one from the culture medium. The zebrafish embryos were harvested and kept at −80° C. till analyzed by LC/MS.
200 μL Sodium acetate buffer solution (pH 5.0) was added to 50 zebrafish embryos. Samples were homogenized for 90 s by an Omni Bead Ruptor Homogenizer (Kennesaw, Ga., United States of America). 10 μL 10% ascorbic acid and 300 μL sodium acetate buffer were added to the homogenates. The mixture was incubated in the presence of β-glucuronidase (250 U) and sulfatase (3 U) at 37° C. for 45 min, and then 600 μL MeOH with 1% acetic acid was added. The resulting mixture was vortexed for 30 s and then centrifuged at 17000 g for 10 min. The supernatant was removed and evaporated under a gentle stream of nitrogen. The residue was reconstituted in 150 μL 90% MeOH with 0.2% acetic acid (AA), and 10 μL was analyzed directly by LC/MS.
LC/MS analysis was carried out with a Thermo-Finnigan Spectra System, which consisted of an Accela high speed MS pump, an Accela refrigerated autosampler, and an LCQ Fleet ion trap mass detector (Thermo Electron, San Jose, Calif., United States of America) incorporated with an electrospray ionization (ESI) interface. A Gemini-NX C18 column (150 mm×4.6 mm i.d., 5 μm; Phenomenex, Torrance, Calif., United States of America) was used for separation at a flow rate of 0.3 mL/min. The column was eluted with 100% A (5% aqueous methanol with 0.2% formic acid) for 1 min, followed by linear increases in B (95% aqueous methanol with 0.2% formic acid) to 55% from 1 to 4 min, to 85% from 4 to 25 min, then to 100% B from 25 to 30 min, and then with 100% B from 30 to 35 min. The column was then re-equilibrated with 100% A for 5 min. The LC eluent was introduced into the ESI interface. The positive ion polarity mode was set for the ESI source with the voltage on the ESI interface maintained at approximately 4.6 kV. Nitrogen gas was used as the sheath gas and auxiliary gas. Optimized source parameters, including capillary temperature (260° C.), sheath gas flow rate (31 arbitrary units), auxiliary gas flow rate (16 units), tube lens (34 V), and capillary voltage 9 V, were tuned using authentic samples. The collision-induced dissociation (CID) was conducted with an isolation width 2 Da and normalized collision energy of 35 for MS^2. The mass range was measured from 100 to 800 m/z. Data acquisition was performed with Xcalibur version 2.0 (Thermo Electron, San Jose, Calif., United States of America).

Q: What does the source list for CCCCC/C=C/C(=O)/C=C/c1ccc(O)c(O)c1 [Compound 26]?
A: Ratio/CTL, Tg(gstp1:GFP) fluorescence signal (Nrf2): 6.96 and 6.96 ± 0.48; IC50 [1]: 5.42 µM; IC50 [2]: 11.5 µM; Cysteine conjugates found in zebrafish embryos [3]: Three conjugates 37, 37b, and 38 were detected
